Results on eight compounds are retold here after PubChem BioAssay (NCI).

Some test systems named below: OVCAR-8 ovarian; A549 NSCLC; ACHN renal; 786-0 renal; K-562 leukemia; PC-3 prostate; HOP-62 NSCLC; SN12C renal; BT-549 breast; SK-MEL-28 melanoma.
Holding throughout (assay): NCI-60 cell line screen, 48 h

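Assay format: 96-well plates, 48-hour exposure. GI50 marks 50% less growth. The concentration for full growth arrest is given as TGI.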

Turning to `O=C(Nc1ccc(Cl)cc1)c1cc(S(=O)(=O)Nc2nnc(-c3ccccc3)c(-c3ccccc3)n2)c(SCc2ccccc2)cc1Cl`, the GI50 in the assay on OVCAR-8 ovarian is 31.8 µM; with A549 NSCLC, 37.2 µM; in the assay on ACHN renal, 27.7 µM; in the assay on 786-0 renal, 23.6 µM; in the assay with K-562 leukemia it was 25 µM; with PC-3 prostate, 39.8 µM. In addition, the GI50 was 26.6 µM in the assay with HOP-62 NSCLC, 16.4 µM with SN12C renal, 34.9 µM with BT-549 breast and 28.9 µM in the assay on SK-MEL-28 melanoma. The TGI with OVCAR-8 ovarian is greater than 71 µM; with A549 NSCLC it was greater than 62.2 µM; with ACHN renal it was greater than 61.5 µM; in the assay with 786-0 renal, greater than 57.8 µM; in the assay on K-562 leukemia it was greater than 100 µM; in the assay with PC-3 prostate it was greater than 100 µM. The TGI in the assay on HOP-62 NSCLC was greater than 58.5 µM; in the assay on SN12C renal, 38.4 µM; in the assay with BT-549 breast, greater than 70.5 µM; in the assay on SK-MEL-28 melanoma it was greater than 73.6 µM.
As for `CC(C)(C)OC(=O)CN1CCc2c(sc3ncnc(N/N=C/c4cccc5ccccc45)c23)C1`, the GI50 with OVCAR-8 ovarian was 2.58 µM; in the assay with A549 NSCLC, 3.03 µM; in the assay on ACHN renal, 1.59 µM; in the assay with 786-0 renal, 4.11 µM; with K-562 leukemia, 1.08 µM; with PC-3 prostate it was 2.04 µM. The GI50 with HOP-62 NSCLC is 2.31 µM; in the assay on SN12C renal, 3.65 µM; in the assay on BT-549 breast it was 6.03 µM; with SK-MEL-28 melanoma, 4.41 µM. Further, the TGI in the assay on OVCAR-8 ovarian is greater than 33.3 µM; in the assay on A549 NSCLC, greater than 33.3 µM; in the assay with ACHN renal, 7.5 µM; in the assay with 786-0 renal, 16.4 µM; with K-562 leukemia it was greater than 33.3 µM; in the assay with PC-3 prostate it was greater than 33.3 µM. For the same compound, the TGI with HOP-62 NSCLC was 11.4 µM; in the assay on SN12C renal, 9.04 µM; with BT-549 breast, greater than 33.3 µM; with SK-MEL-28 melanoma, 15.7 µM.
For the compound `O=c1c2ccccc2nc(-c2ccccc2)n1O`, the TGI in the assay with OVCAR-8 ovarian, in the assay on A549 NSCLC, in the assay on ACHN renal, in the assay with 786-0 renal, in the assay with K-562 leukemia and in the assay on PC-3 prostate was greater than 100 µM each time. Moreover, the TGI with HOP-62 NSCLC was 37.4 µM; in the assay on SN12C renal, greater than 100 µM; in the assay on BT-549 breast, greater than 100 µM; with SK-MEL-28 melanoma, greater than 100 µM.
As for `COc1ccc(/C=C/C(=O)c2cc3c(N)c(C(=O)Nc4ccccc4C)sc3nc2C)cc1`, the GI50 in the assay on OVCAR-8 ovarian is 1.14 µM; in the assay with A549 NSCLC, 0.905 µM; in the assay with ACHN renal, 0.36 µM; in the assay with 786-0 renal, 0.489 µM; in the assay with K-562 leukemia, 0.267 µM; with PC-3 prostate, 0.285 µM. For the same compound, the GI50 in the assay with HOP-62 NSCLC was 0.779 µM; with SN12C renal it was 0.833 µM; in the assay on BT-549 breast it was 0.568 µM; in the assay on SK-MEL-28 melanoma, 7.14 µM. Also, the TGI in the assay with OVCAR-8 ovarian, in the assay on A549 NSCLC, in the assay with ACHN renal, in the assay with 786-0 renal, in the assay on K-562 leukemia and with PC-3 prostate was greater than 50 µM in each case. In addition, the TGI in the assay on HOP-62 NSCLC, in the assay with SN12C renal, with BT-549 breast and with SK-MEL-28 melanoma was greater than 50 µM throughout.
With `COC(=O)C1(C2CC/C(C)=C/CC/C(C)=C/CC[C@@]3(C)O[C@@H]3C2)CC1` (stereo partly drawn), the GI50 was greater than 44.3 µM in the assay on OVCAR-8 ovarian; 29 µM in the assay with A549 NSCLC; greater than 41.3 µM with ACHN renal; 35.5 µM in the assay on 786-0 renal; 29.1 µM with K-562 leukemia; 36.5 µM in the assay on PC-3 prostate. In addition, the GI50 in the assay with HOP-62 NSCLC was 25.8 µM; in the assay with SN12C renal, greater than 100 µM; with BT-549 breast it was greater than 100 µM; in the assay with SK-MEL-28 melanoma, greater than 100 µM. Besides, the TGI in the assay with OVCAR-8 ovarian is greater than 65.1 µM; with A549 NSCLC, greater than 80.3 µM; in the assay with ACHN renal, greater than 62.2 µM; with 786-0 renal it was greater than 70 µM; with K-562 leukemia it was 99.6 µM; in the assay with PC-3 prostate, greater than 100 µM. Moreover, the TGI was 65.8 µM in the assay with HOP-62 NSCLC, greater than 100 µM in the assay on SN12C renal, greater than 100 µM with BT-549 breast and greater than 100 µM in the assay with SK-MEL-28 melanoma.
For `Cc1cccc2c1O/C(=C\c1ccc([N+](=O)[O-])o1)C2=O`, the GI50 is 0.941 µM with OVCAR-8 ovarian; 2.56 µM in the assay on A549 NSCLC; 0.367 µM in the assay with ACHN renal; 1.8 µM with 786-0 renal; 0.296 µM in the assay with K-562 leukemia; 1.34 µM with PC-3 prostate. In addition, the GI50 with HOP-62 NSCLC is 1.64 µM; with SN12C renal, 1.57 µM; in the assay with BT-549 breast, 1.28 µM; in the assay with SK-MEL-28 melanoma, 1.53 µM. For the same compound, the TGI came to 7.93 µM in the assay on OVCAR-8 ovarian; 7.81 µM with A549 NSCLC; 1.44 µM with ACHN renal; 4.27 µM in the assay with 786-0 renal; 1.12 µM in the assay with K-562 leukemia; 4.11 µM in the assay on PC-3 prostate. For the same compound, the TGI turned out to be 4.44 µM in the assay with HOP-62 NSCLC, 4.25 µM in the assay with SN12C renal, 2.63 µM in the assay on BT-549 breast and 3.05 µM in the assay on SK-MEL-28 melanoma.
As for `O=C1c2ccn(CCCCN3CCCCC3)c2C(=O)c2c1c(O)c1ccccc1c2O`, the GI50 in the assay on OVCAR-8 ovarian is 3.52 µM; in the assay with A549 NSCLC, 10.3 µM; in the assay with ACHN renal, 18.7 µM; with 786-0 renal it was 5.28 µM; with K-562 leukemia, 2.68 µM; in the assay with PC-3 prostate it was 4.76 µM. Moreover, the GI50 was 13.4 µM in the assay on HOP-62 NSCLC, 16.5 µM with SN12C renal, 17.7 µM in the assay with BT-549 breast and 3.73 µM in the assay with SK-MEL-28 melanoma. For the same compound, the TGI in the assay on OVCAR-8 ovarian is greater than 100 µM; in the assay with A549 NSCLC, 33.9 µM; with ACHN renal it was 38.5 µM; in the assay on PC-3 prostate, 18.1 µM; with HOP-62 NSCLC, 35.4 µM; with SN12C renal, 45 µM. Further, the TGI stood at 38.3 µM with BT-549 breast and 44.2 µM with SK-MEL-28 melanoma.
In the case of `C=C1CC2(CCCC3(CC(=C)C(=O)O3)C2(C)C)OC1=O` (stereo not drawn), the TGI with OVCAR-8 ovarian came out at 7.55 µM; in the assay on A549 NSCLC, 28.9 µM; in the assay with ACHN renal, 2.4 µM; in the assay with 786-0 renal it was 11.4 µM; in the assay on K-562 leukemia, 13.7 µM; with PC-3 prostate it was 21.1 µM. For the same compound, the TGI with HOP-62 NSCLC is 30.8 µM; with SN12C renal, 10.7 µM; with BT-549 breast, 17 µM; with SK-MEL-28 melanoma, 4.61 µM.
